US20110262556A1, “SILVER/WATER, SILVER GELS AND SILVER-BASED COMPOSITIONS; AND METHODS FOR MAKING AND USING THE SAME” (AMERICAN SILVER, LLC, priority 2005, published 2011)
≈ marks a conversion by molar mass, not a printed value. Read-outs that look alike come from different tables or passages of the source.

Experiments:
MRSA 1 = test: Zone of inhibition, agar well; conditions: antibiotic amount (1-200 mcg)
MRSA 2 = test: Zone of inhibition, agar well; conditions: antibiotic amount (1-200 mcg)
S. aureus ATCC 6538 P = test: Zone of inhibition, agar well; conditions: antibiotic amount (1-200 mcg)
S. pyogenes = test: MIC/MBC broth microdilution; format: cell-based, Streptococcus pyogenes
S. mutans = test: MIC/MBC broth microdilution; format: cell-based, Streptococcus mutans
S gordonii = test: MIC/MBC broth microdilution; format: cell-based, Streptococcus gordonii
S. pneumoniae = test: MIC/MBC broth microdilution; format: cell-based
S. faecalis = test: MIC/MBC broth microdilution; format: cell-based, Streptococcus faecalis
S. aureus = test: MIC/MBC broth microdilution; format: cell-based, Staphylococcus aureus
P. aeruginosa = test: MIC/MBC broth microdilution; format: cell-based, Pseudomonas aeruginosa
E. coli = test: MIC/MBC broth microdilution; format: cell-based, Escherichia coli
E. aerogenes = test: MIC/MBC broth microdilution; format: cell-based, Enterobacter aerogenes
E. cloacae = test: MIC/MBC broth microdilution; format: cell-based
S. typhimurium = test: MIC/MBC broth microdilution; format: cell-based; conditions: S. typhimurium
S arizona = test: MIC/MBC broth microdilution; format: cell-based, Salmonella arizona
S. boydii = test: MIC/MBC broth microdilution; format: cell-based, Shigella boydii; conditions: S. boydii
K. pneumoniae = test: MIC/MBC broth microdilution; format: cell-based, Klebsiella pneumoniae
E. coil = test: Zone of inhibition, agar well; conditions: E.coli; antibiotic amount (5-200 mcg)
S.typhi = test: Zone of inhibition, agar well; conditions: antibiotic amount (5-200 mcg)
K. oxytoca = test: MIC/MBC broth microdilution; format: cell-based; conditions: K. oxytoca
B. subtilis = test: Zone of inhibition, agar well; conditions: antibiotic amount (1-200 mcg)
[1] = system: Escherichia coli MDR clinical isolate (stool); test: Antibiotic sensitivity, Kirby Bauer; conditions: for Zone size (mm): E.c, Kirby-Bauer antibiotic disc; for resistance of isolate: gram-negative isolate E. coli
[2] = system: Pseudomonas aeruginosa MDR clinical isolate (sputum); test: Antibiotic sensitivity, Kirby Bauer; conditions: for resistance of isolate: gram-negative isolate Pseudomonas
[3] = system: MRSA clinical isolate (pus); test: Antibiotic sensitivity, Kirby Bauer

In the case of `CCC[C@@H]1C[C@@H](C(=O)N[C@@H]([C@H]2O[C@H](SC)[C@H](O)[C@@H](O)[C@H]2O)[C@@H](C)O)N(C)C1` [Lincomycin], the “zone of inhibition, antibiotics” value (MRSA 1) is reported as “Clear”, the “zone of inhibition, antibiotics” value (MRSA 2) is reported as “Clear” and the “zone of inhibition, antibiotics” value (S. aureus ATCC 6538 P) is reported as 1Clear.

In the case of `CC1COc2c(N3CCN(C)CC3)c(F)cc3c(=O)c(C(=O)O)cn1c23` (stereo not shown) [Ofloxacin], the MBC (S. pyogenes; Streptococcus pyogenes, read-out: MBC) is reported as 2.5 µg/mL (≈ 6.92 µM), the MIC (S. pyogenes; Streptococcus pyogenes, read-out: MIC) is reported as 1.25 µg/mL (≈ 3.46 µM) and the MBC (S. mutans; Streptococcus mutans, read-out: MBC) is reported as over 5 µg/mL. The MIC (S. mutans; Streptococcus mutans, read-out: MIC) was 2.5 µg/mL (≈ 6.92 µM), the MBC (S gordonii; Streptococcus gordonii, read-out: MBC) was 5 µg/mL (≈ 13.8 µM) and the MIC (S gordonii; Streptococcus gordonii, read-out: MIC) was 2.5 µg/mL (≈ 6.92 µM). For the same compound, the MBC (S. pneumoniae; Streptococcus pneumoniae, read-out: MBC) was 2.5 µg/mL (≈ 6.92 µM), the MIC (S. pneumoniae; Streptococcus pneumoniae, read-out: MIC) was 2.5 µg/mL (≈ 6.92 µM) and the MBC (S. faecalis; Enterococcus faecalis, read-out: MBC) was 5 µg/mL (≈ 13.8 µM). It also gave an MIC (S. faecalis; Enterococcus faecalis, read-out: MIC) of 1.25 µg/mL (≈ 3.46 µM), an MBC (S. aureus; Staphylococcus aureus, read-out: MBC) of 0.625 µg/mL (≈ 1.73 µM) and an MIC (S. aureus; Staphylococcus aureus, read-out: MIC) of 0.417 µg/mL (≈ 1.15 µM). The MBC (P. aeruginosa; Pseudomonas aeruginosa, read-out: MBC) was 0.313 µg/mL (≈ 0.866 µM), the MIC (P. aeruginosa; Pseudomonas aeruginosa, read-out: MIC) was 0.156 µg/mL (≈ 0.432 µM) and the MBC (E. coli; Escherichia coli, read-out: MBC) was 0.156 µg/mL (≈ 0.432 µM). It also gave an MIC (E. coli; Escherichia coli, read-out: MIC) of 0.104 µg/mL (≈ 0.288 µM), an MBC (E. aerogenes; Klebsiella aerogenes) of 0.156 µg/mL (≈ 0.432 µM) and an MIC (E. aerogenes; Klebsiella aerogenes) of 0.078 µg/mL (≈ 0.216 µM). It also gave an MBC (E. cloacae; Enterobacter cloacae) of 0.156 µg/mL (≈ 0.432 µM), an MIC (E. cloacae; Enterobacter cloacae, read-out: MIC) of 0.156 µg/mL (≈ 0.432 µM) and an MBC (S. typhimurium; Salmonella enterica, read-out: MBC) of 0.156 µg/mL (≈ 0.432 µM). It also gave an MIC (S. typhimurium; Salmonella enterica, read-out: MIC) of 0.078 µg/mL (≈ 0.216 µM), an MBC (S arizona; Salmonella, read-out: MBC) of 0.078 µg/mL (≈ 0.216 µM) and an MIC (S arizona; Salmonella, read-out: MIC) of 0.078 µg/mL (≈ 0.216 µM). It also gave an MBC (S. boydii; Shigella boydii, read-out: MBC) of 0.156 µg/mL (≈ 0.432 µM), an MIC (S. boydii; Shigella boydii, read-out: MIC) of 0.078 µg/mL (≈ 0.216 µM) and an MBC (K. pneumoniae; Klebsiella pneumoniae) of 0.625 µg/mL (≈ 1.73 µM). For the same compound, the MIC (K. pneumoniae; Klebsiella pneumoniae, read-out: MIC) was 0.417 µg/mL (≈ 1.15 µM), the “zone of inhibition, antibiotics” value (MRSA 1) was 15 mm and the “zone of inhibition, antibiotics” value (MRSA 2) was 16 mm.

`CCn1cc(C(=O)O)c(=O)c2cc(F)c(N3CCN(C)CC3)cc21` [Peflofloxacin] was tested, and the “zone of inhibition, antibiotics” value (E. coil) was “Clear”, the “zone of inhibition, antibiotics” value (MRSA 1) was 11 mm and the “zone of inhibition, antibiotics” value (MRSA 2) was 13 mm. The “zone of inhibition, antibiotics” value (S. aureus ATCC 6538 P) was 30 mm and the “zone of inhibition, antibiotics” value (S.typhi) was “clear”.

Work on `CC1(C)S[C@@H]2[C@H](NC(=O)Cc3ccccc3)C(=O)N2[C@H]1C(=O)O` [Penicillin G] yielded an MIC (S. pyogenes) of over 5.0 ppm, an MBC (S. mutans) of over 5 ppm and an MIC (S. mutans) of 0.521 ppm. For the same compound, the MBC (S gordonii; S gordonii) was 0.039 ppm, the MIC (S gordonii; S gordonii) was 0.009 ppm and the MBC (S. pneumoniae) was 0.019/0.019 ppm. For the same compound, the MIC (S. pneumoniae) was 0.019/0.019 ppm, the MBC (S. faecalis) was 5.0/>5.0 ppm and the MIC (S. faecalis) was 5.0/>5.0 ppm. It also gave an MBC (S. aureus) of over 5.0 ppm, an MIC (S. aureus) of 2.5 ppm and an MBC (P. aeruginosa) of over 5.0 ppm. For the same compound, the MIC (P. aeruginosa) was 0.13 ppm, the MIC (E. coli) was over 5.0 ppm and the MIC (E. aerogenes; E. aerogenes) was over 5.0 ppm. The MIC (E. cloacae) was over 5.0 ppm, the MIC (S. typhimurium) was over 5.0 ppm and the MIC (S arizona) was over 5.0 ppm. For the same compound, the MIC (S. boydii) was over 5.0 ppm, the MIC (K. pneumoniae) was over 5.0 ppm and the MIC (K. oxytoca) was over 5.0 ppm.

`CCN1CCN(C(=O)N[C@@H](C(=O)N[C@@H]2C(=O)N3[C@@H]2SC(C)(C)[C@@H]3C(=O)O)c2ccccc2)C(=O)C1=O` [Piperacillin] was tested, and the “zone of inhibition, antibiotics” value (E. coil) was 22 mm and the “zone of inhibition, antibiotics” value (S.typhi) was 16 mm.

In the case of `CC[C@H]1OC(=O)[C@H](C)[C@@H](O[C@H]2C[C@@](C)(OC)[C@@H](O)[C@H](C)O2)[C@H](C)[C@@H](O[C@@H]2O[C@H](C)C[C@H](N(C)C)[C@H]2O)[C@](C)(O)C[C@@H](C)/C(=N\OCOCCOC)[C@H](C)[C@@H](O)[C@]1(C)O` [Roxythromycin], the “zone of inhibition, antibiotics” value (B. subtilis) is reported as 20 mm, the “zone of inhibition, antibiotics” value (MRSA 1) is reported as 1.0 mm and the “zone of inhibition, antibiotics” value (MRSA 2) is reported as 12 mm. The “zone of inhibition, antibiotics” value (S. aureus ATCC 6538 P) was “Clear”.

For `CC(C)(O/N=C(\C(=O)N[C@@H]1C(=O)N2C(C(=O)[O-])=C(C[n+]3ccccc3)CS[C@H]12)c1csc(N)n1)C(=O)O` [ceftazidime], the “Zone size (mm)” value [1] was 10 mm, the resistance of isolate [1] was “resistance” and the “Zone size (mm)” value ([2]; Ps., Kirby-Bauer antibiotic disc) was 16 mm. The resistance of isolate [2] was “resistance” and the resistance of isolate [3] was “resistant”.

For `NC[C@H]1O[C@H](O[C@H]2[C@H](O)[C@@H](O[C@H]3O[C@H](CO)[C@@H](O)[C@H](N)[C@H]3O)[C@H](N)C[C@@H]2N)[C@H](O)[C@@H](O)[C@@H]1O` [kanamycin], the “Zone size (mm)” value [1] was 14 mm.

In the case of `CCn1cc(C(=O)O)c(=O)c2ccc(C)nc21` [nalidixic acid], the resistance of isolate [1] is reported as “resistance” and the resistance of isolate [2] is reported as “resistance”.
